Laboratory results from patent publication US5753617A, “Peptide inhibitors of cellular adhesion” (Centocor, Inc., priority 1995, dated 1998).
Where a SMILES comes first, the peptide text is derived from it. Bridges are numbered along the chain shown (N, C = ends). [ ]: non-standard residue; d: D form. d2Nal = N[C@H](Cc1ccc2ccccc2c1)C(=O)O; dTic = O=C(O)[C@H]1Cc2ccccc2CN1; dThz = O=C(O)[C@H]1CSCN1

Biological target: T1, P-selectin (Homo sapiens, UniProt P16109)
T1 construct: P-selectin is isolated from human platelet lysates; from tissue; host or cells: human platelets (outdated platelet packs from a blood bank)
T1 sequence (P16109 42-830): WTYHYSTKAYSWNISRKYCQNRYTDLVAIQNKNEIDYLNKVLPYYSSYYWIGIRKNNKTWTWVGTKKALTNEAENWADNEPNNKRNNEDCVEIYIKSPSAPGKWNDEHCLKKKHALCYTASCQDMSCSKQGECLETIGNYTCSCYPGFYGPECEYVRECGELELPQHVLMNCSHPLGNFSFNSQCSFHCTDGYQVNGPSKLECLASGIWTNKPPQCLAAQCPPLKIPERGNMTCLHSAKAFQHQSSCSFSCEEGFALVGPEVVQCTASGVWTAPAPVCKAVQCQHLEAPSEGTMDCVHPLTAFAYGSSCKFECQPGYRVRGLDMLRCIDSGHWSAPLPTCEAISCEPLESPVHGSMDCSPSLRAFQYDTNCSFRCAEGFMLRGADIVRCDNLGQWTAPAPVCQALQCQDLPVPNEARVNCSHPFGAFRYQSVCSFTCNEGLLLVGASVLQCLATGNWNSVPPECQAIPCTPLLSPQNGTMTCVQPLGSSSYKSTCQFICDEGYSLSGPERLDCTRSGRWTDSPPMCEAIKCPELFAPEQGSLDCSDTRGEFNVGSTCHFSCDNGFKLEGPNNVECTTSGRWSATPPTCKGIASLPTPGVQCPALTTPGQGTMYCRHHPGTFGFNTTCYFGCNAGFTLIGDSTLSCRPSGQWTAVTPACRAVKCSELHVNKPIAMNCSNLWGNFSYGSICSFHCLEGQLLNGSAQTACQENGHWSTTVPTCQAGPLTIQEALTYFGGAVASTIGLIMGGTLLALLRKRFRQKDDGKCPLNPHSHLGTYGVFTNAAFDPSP
Assay: Inhibition of human neutrophil adhesion to purified P-selectin immobilized on plastic wells
Assay type: cell-based
Conditions: inhibiting the binding of human neutrophils to P-selectin
Source text: Peptides can be screened for their ability to inhibit adhesion to cells, for example, neutrophil adhesion to purified P-selectin immobilized on plastic wells, using the assay described by Geng, et al., Nature 343, 757-760 (1990). Human neutrophils are isolated from heparinized whole blood by density gradient centrifugation on Mono-Poly resolving media, Flow Laboratories. Neutrophil suspensions are greater than 98% pure and greater than 95% viable by trypan blue exclusion. For adhesion assays, neutrophils are suspended at a concentration of 2×10^6 cells/mL in Hanks' balanced salt solution containing 1.26 mM Ca^2+ and 0.81 mM Mg^2+ (HBSS, Gibco) with […] human serum albumin (HBSS/HSA). Adhesion assays are conducted in triplicate in 96-well microliter plates, Corning, incubated at 4° C. overnight with 50 microliters of various protein solutions. P-selectin is isolated from human platelet lysates by immunoaffinity chromatography on antibody S12-Sepharose™ and ion-exchange chromatography on a Mono-Q™ column (FLPC, Pharmacia Fine Chemicals), as follows. Outdated human platelet packs (100 units) obtained from a blood bank and stored at 4° C. are pooled, adjusted to 5 mM EDTA at pH 7.5, centrifuged at 4,000 rpm for 30 minutes in 1 liter bottles, then washed three times with 1 liter of 0.1M NaCl, 20 mM Tris pH 7.5 (TBS), 5 mM EDTA, 5 mM benzamidine. The pellets are then resuspended in a minimum amount of wash buffer and made 1 mM in DIFP, then frozen in 50 mL screwtop tubes at -80° C. The frozen platelets are thawed and resuspended in 50 mL TBS, 5 mM benzamidine, 5 mM EDTA pH 7.5, […]. The suspension is frozen and thawed two times in a dry ice-acetone bath using a 600 mL lyophilizing flask, then homogenized in a glass/teflon mortar and pestle and made 1 mM in DIFP. The NaCl concentration is adjusted to 0.5M with a stock solution of 4M NaCl. After stirring the suspension at 4° C., it is centrifuged in polycarbonate tubes at 33,000 rpm for 60 minutes at 4° C. The supernatant (0.5M NaCl wash) is removed and saved; this supernatant contains the soluble form of P-selectin. Care is taken not to remove the top part of the pellet with the supernatant. The pellets are then homogenized in extraction buffer (TBS, 5 mM benzamidine, 5 mM EDTA, pH 7.5, 100 μM leupeptin, 2% Triton X-100). After centrifugation at 19,500 rpm for 25 minutes at 4° C., the supernatant is removed. The extraction procedure is repeated with the pellet and the supernatant is combined with the first supernatant. The combined extracts, which contain the membrane form of P-selectin, are adjusted to 0.5M NaCl. The soluble fraction (0.5M NaCl wash) and the membrane extract (also adjusted to 0.5M NaCl) are absorbed with separate pools of the monoclonal antibody S12 (directed to P-selectin) previously couple […]) at 5 mg/mL for 2 hours at 4° C. After letting the resins settle, the supernatants are removed. The S12 Affigel containing bound GMP-140 is then loaded into a column and washed overnight at 4° C. with 400 mL of 0.5M NaCl, 20 mM Tris pH 7.5, 0.01% Lubrol PX. Bound P-selectin is eluted from the S12 Affigel with 100 mL of 80% ethylene glycol, 1 mM MES pH 6.0, 0.01% Lubrol PX. Peak fractions with absorbance at 280 nm are pooled. Eluates are dialyzed against TBS with 0.05% Lubrol, then applied to a Mono Q column (FPLC from Pharmacia). The concentrated protein is step eluted with 2M NaCl, 20 mM Tris pH 7.5 (plus 0.05% Lubrol PX for the membrane fraction). Peak fractions are dialyzed into TBS pH 7.5 (plus 0.05% Lubrol PX for the membrane fraction). P-selectin is plated at 5 micrograms/mL and the control proteins: human serum albumin (Alb), platelet glycoprotein IIb/IIIa (IIb), von Willebrand factor (vWF), fibrinogen (FIB), thrombomodulin (TM), gelatin (GEL) or human serum (HS), are added at 50 micrograms/mL. […]

In order of falling IC50:
1. CC(C)[C@@H](NC(=O)[C@@H](Cc1c[nH]c2ccccc12)NC(=O)[C@H](NC(=O)[C@@H](CCCCN)NC(=O)[C@H]1CSSC[C@@H](NC(=O)[C@@H](CCCCN)NC(=O)[C@H](N)CCCNC(=N)N)C(=O)NCC(=O)N[C@@H](Cc2ccccc2)C(=O)N1)[C@H](C)O)C(N)=O [(56)] (H-[dR][dK][dC]GF[dC][dK][dT][dW][dV]-NH2; disulfide 3-6)  727 µM
2. CC(C)[C@@H](NC(=O)[C@@H](Cc1c[nH]c2ccccc12)NC(=O)[C@H](NC(=O)[C@@H](Cc1c[nH]c2ccccc12)NC(=O)[C@H]1CSSC[C@@H](NC(=O)[C@@H](CCCCN)NC(=O)[C@H](N)CCCNC(=N)N)C(=O)N[C@H](CCCCN)C(=O)N[C@@H](Cc2ccccc2)C(=O)N1)[C@H](C)O)C(N)=O [(54)] (H-[dR][dK][dC][dK]F[dC][dW][dT][dW][dV]-NH2; disulfide 3-6)  217 µM
3. CC(C)[C@@H](NC(=O)[C@@H](Cc1c[nH]c2ccccc12)NC(=O)[C@H](NC(=O)[C@@H](Cc1c[nH]c2ccccc12)NC(=O)[C@H]1CSSC[C@@H](NC(=O)[C@@H](CCCCN)NC(=O)[C@H](N)CCCNC(=N)N)C(=O)NCC(=O)N2CSC[C@@H]2C(=O)N1)[C@H](C)O)C(N)=O [(58)] (H-[dR][dK][dC]G[dThz][dC][dW][dT][dW][dV]-NH2; disulfide 3-6)  186 µM
4. CC(C)[C@@H](NC(=O)[C@@H](Cc1c[nH]cn1)NC(=O)[C@H](NC(=O)[C@@H](Cc1c[nH]c2ccccc12)NC(=O)[C@H]1CSSC[C@@H](NC(=O)[C@@H](CCCCN)NC(=O)[C@H](N)CCCNC(=N)N)C(=O)NCC(=O)N[C@@H](Cc2ccccc2)C(=O)N1)[C@H](C)O)C(N)=O [(61)] (H-[dR][dK][dC]GF[dC][dW][dT][dH][dV]-NH2; disulfide 3-6)  65.4 µM
5. CC(=O)NCCCC[C@@H](NC(=O)[C@H]1CSC[C@@H](NC(=O)[C@@H](CCCCN)NC(=O)[C@H](N)CCCNC(=N)N)C(=O)NCC(=O)N[C@@H](Cc2ccccc2)C(=O)N1)C(=O)N[C@@H](C(=O)N[C@H](Cc1c[nH]c2ccccc12)C(=O)N[C@@H](C(N)=O)C(C)C)[C@H](C)O [(50)]  19.5 µM
6. CC(C)[C@@H](NC(=O)[C@@H](Cc1c[nH]c2ccccc12)NC(=O)[C@H](NC(=O)[C@@H](Cc1c[nH]c2ccccc12)NC(=O)[C@H]1CSSC[C@@H](NC(=O)[C@@H](CCCCN)NC(=O)[C@H](N)CCCNC(=N)N)C(=O)NCC(=O)N2Cc3ccccc3C[C@@H]2C(=O)N1)[C@H](C)O)C(N)=O [(59)] (H-[dR][dK][dC]G[dTic][dC][dW][dT][dW][dV]-NH2; disulfide 3-6)  18.3 µM
7. CC(C)[C@@H](NC(=O)[C@@H](Cc1c[nH]c2ccccc12)NC(=O)[C@H](NC(=O)[C@@H](Cc1ccc2ccccc2c1)NC(=O)[C@H]1CSSC[C@@H](NC(=O)[C@@H](CCCCN)NC(=O)[C@H](N)CCCNC(=N)N)C(=O)NCC(=O)N[C@@H](Cc2ccccc2)C(=O)N1)[C@H](C)O)C(N)=O [(51)] (H-[dR][dK][dC]GF[dC][d2Nal][dT][dW][dV]-NH2; disulfide 3-6)  7.7 µM
8. CC[C@H](C)[C@@H]1NC(=O)[C@H]([C@@H](C)CC)NC(=O)[C@H](NC(=O)[C@@H](CCCCN)NC(=O)[C@H](N)CCCNC(=N)N)CSSC[C@H](C(=O)N[C@H](Cc2c[nH]c3ccccc23)C(=O)N[C@@H](C(=O)N[C@H](Cc2c[nH]c3ccccc23)C(=O)N[C@@H](C(N)=O)C(C)C)[C@H](C)O)NC1=O [(49)] (H-[dR][dK][dC]II[dC][dW][dT][dW][dV]-NH2; disulfide 3-6)  7.1 µM
9. CC(C)[C@@H](NC(=O)[C@@H](Cc1c[nH]c2ccccc12)NC(=O)[C@H](NC(=O)[C@@H](Cc1c[nH]c2ccccc12)NC(=O)[C@H]1CSSC[C@@H](NC(=O)[C@@H](CCCCN)NC(=O)[C@H](N)CCCNC(=N)N)C(=O)NCC(=O)N[C@@H](Cc2c[nH]c3ccccc23)C(=O)N1)[C@H](C)O)C(N)=O [(60)] (H-[dR][dK][dC]GW[dC][dW][dT][dW][dV]-NH2; disulfide 3-6)  1.4 µM
